We go through four compounds from paper PMC7796460, “Relation of Metal-Binding Property and Selective Toxicity of 8-Hydroxyquinoline Derived Mannich Bases Targeting Multidrug Resistant Cancer Cells” (Cancers, 2021).

The test system of data set [1] is MES-SA, MES-SA/Dx5 and MES-SA/B1 cells. Nature of the data set: TXRF intracellular copper levels. Type of data set: cell-based, human. To be noted: for Intracellular copper levels: 1 µM ligand with 5 µM CuCl2, 4 h (Figure 4B). On the procedure: Cells were seeded to 6-well plates in a density of 1.5 Mio cells/well and allowed to attach overnight. Following a washing step with phosphate buffered saline (PBS), cells were incubated in serum free DMEM. For the iron-level measurements, cells were preloaded with 25 µM holo-transferrin for 4 h and, after a washing step with serum free DMEM, cells were incubated with 5 µM of each ligand for 8 h. For the detection of copper levels, cells were treated with 1 µM of the ligands in the presence of 5 µM CuCl2 for 4 h. Following incubation, cells were harvested upon trypsination, washed twice with PBS, counted and the resulting pellets were digested in 20 μL of 30% H2O2, 80 μL of 65% HNO3. 10 μL of 15 µg/mL Ga(NO3)3 (in nitric acid) was added as an internal standard upon digestion for 24 h at room temperature. From the resulting solutions, 2 μL were pipetted on the quartz reflectors used for total-reflection X-ray fluorescence (TXRF) analysis. For the determination of the intracellular Cu content, the TXRF method was used as previously reported. Briefly, all determinations were performed on an Atomika 8030C TXRF spectrometer (Atomika Instruments GmbH, Oberschleissheim, Germany). The stock solution of 1000 mg/L Ga was purchased from Merck (Darmstadt, Germany). The Kα line used for determination of Fe and Cu were at 6.403 and 8.047 keV. […] Significance was calculated using unpaired t-tests; results are given as *: p ≤ 0.05, **: p ≤ 0.01, ***: p ≤ 0.001, ****: p ≤ 0.0001.
Figure 4 Effect of the compounds on intracellular metal levels. (A) Iron levels of MES-SA (open columns) and MES-SA/B1 cells in absence (dark red squared columns) and presence of Pgp inhibitor Tariquidar (bright red squared columns). Cells were loaded with 25 µM holo-transferrin (4 h), followed by an incubation (8 h) without (ctr) or with 5 µM of ligands Q-1, Q-2, Q-3, and Q-4. […] (B) Cellular copper levels measured following a 4 h co-administration of compounds Q-1, Q-2, Q-3, and Q-4 (1 µM) and CuCl2 (5 µM) in MES-SA (open columns), MES-SA/Dx5 (filled columns) and MES-SA-B1 (squared columns) cells. Significance is given as *: p ≤ 0.05, **: p ≤ 0.01, ***: p ≤ 0.001.

Data set [2] is described as follows: Reduction of in situ formed copper(II) complexes by GSH, followed spectrophotometrically. It is filed as physicochemical. Particulars: 1:1 metal to ligand, 5 eq GSH (Figure 5B). The text has this: Disruption of cellular redox homeostasis can be responsible for the toxicity of an anticancer agent. […] In addition to their redox potentials, redox cycling of the complexed metal ions is also influenced by the kinetics of the reduction and re-oxidation reactions. Reduction of iron(III) and copper(II) complexes by the physiologically relevant reducing agents glutathione (GSH) and ascorbate was followed spectrophotometrically. Although GSH is a stronger reducing agent than ascorbate, ascorbate reacted considerably faster with the iron(III) complexes (Figure 5A), while reduction by GSH seemed to be kinetically hindered (not shown). […]
Figure 5 Reduction of the in situ formed iron(III) and copper(II) complexes from equimolar metal-to-ligand ratios with antioxidants was followed spectrophotometrically by the decrease in the respective absorbance maxima. (A) Time-dependent decrease of the absorbance values in equimolar 1:1 metal to ligand mixtures of FeCl3 with Q-1 at 356 nm (black), Q-2 at 348 nm (blue), Q-3 at 334 nm (green) and Q-4 at 328 nm upon addition of 2.5 equivalents of ascorbate. (B) Time-dependent decrease of the absorbance values in equimolar 1:1 metal to ligand mixtures of CuCl2 with Q-1 at 370 nm (black), Q-2 at 372 nm (blue), Q-3 at 368 nm (green) and Q-4 at 430 nm upon addition of 5 eq GSH. […]

Another data set has as its system KB-v1 cells. Nature of the data set: MTT viability assay, KB-v1. Type of data set: cell-based. Particulars: Homo sapiens, KB-V1, 72 h, MTT 72 h. The text has this: MDCK II canine kidney cells, A431 epidermoid carcinoma cells, the human uterine sarcoma cell lines MES-SA and the doxorubicin selected MES-SA-Dx5 were obtained from ATCC (MDCK II: No. CRL-2936™, A431: No. CRL-1555™, MES-SA: No. CRL-1976™, MES-SA/Dx5: No. CRL-1977™). ABCB1 was expressed in A431 and MES-SA cells using lentiviral transduction. The human cervix carcinoma cell line KB-3-1 and the vinblastine selected KB-v1were kind gifts from Dr. Michael M. Gottesman, National Institutes of Health. The phenotype of the resistant cells was verified using cytotoxicity assays. MDCK-B1 and MDCK-MM were established by the Sleeping Beauty transposon-based gene delivery system. OVCAR-8 and NCI-ADRres cells (obtained from the Division of Cancer Treatment and Diagnosis (DCTD) Tumor Repository (National Cancer Institute, Frederick, MD, USA)) were cultivated in RPMI-1640 (Sigma Aldrich, Budapest, Hungary), and other cell lines were cultivated in Dulbecco’s Modified Eagle Medium (DMEM, Sigma Aldrich, Budapest, Hungary), supplemented with 10% fetal bovine serum, 5 mM glutamine, and 50 unit/mL penicillin and streptomycin (Life Technologies, Carlsbad, CA, USA). All cell lines were cultivated at 37 °C, 5% CO2.
MTT viability assays were performed as described earlier with minor modifications. Briefly, cells were seeded into 96-well tissue culture plates (Sarstedt, Newton, NC, USA/Orange, Braine-l’Alleud, Belgium) at a density of 5000 cells/well and allowed to attach overnight. Test compounds were added to achieve the required final concentration in a final volume of 100 µL per well. After an incubation period of 72 h, the supernatant was removed and fresh medium containing the MTT reagent (0.083 mg/mL) was added. Incubation with MTT at 37 °C was terminated after 1 h by removing the supernatant and lysing the cells with 100 µL DMSO per well. Viability of the cells was measured spectrophotometrically based on the absorbance values at 540 nm using either a Perkin Elmer Victor X3 or an EnSpire microplate reader. Data were background corrected by subtraction of the signal obtained from unstained cell lysates and normalized to untreated cells. Curves were fitted by Prism software (GraphPad Software Inc., San Diego, CA, USA) using the sigmoidal dose-response model (comparing variable and fixed slopes). […] Significance was calculated using unpaired t-tests; results are given as *: p ≤ 0.05, **: p ≤ 0.01, ***: p ≤ 0.001, ****: p ≤ 0.0001.

On the set-up of data set [3]: method as in PMID 30460942. Particulars: copper(II) complex of the ligand; cited from earlier work.
Setting [4] is: presence of 1 µM Tariquidar (values in brackets).

As for `Oc1c(CN2CCOCC2)ccc2cccnc12` [Compound Q-2, 7-(morpho-lino-methyl)quinolin-8-ol], the Intracellular copper levels result in data set [1] is reported as “significantly increased copper levels”. Also, the “Time until half of the initial copper(II) complex is reduced by GSH” value in data set [2] is reported as “within the first minute”. Besides, the IC50 (commonly the point on the concentration scale where inhibition reaches its midpoint) in the data set with KB-v1 cells (absence of Tariquidar) is 6.42 ± 2.19 µM; in the data set on KB-v1 cells (setting [4]), 11.3 µM.

`Oc1cccc2cccnc12` [Compound Q-1, 8-Hydroxyquinoline]: the Intracellular copper levels entry in data set [1] is “significantly increased copper levels”. In addition, the results for the IC50 with KB-v1 cells (absence of Tariquidar) and in the data set with KB-v1 cells (setting [4]) were 8.71 ± 4.43 µM and 10.8 µM, respectively.

On to `Oc1c(CNCc2ccccc2F)cc(Cl)c2cccnc12` [Compound Q-4, 5-chloro-7-((2-fluorobenzylamino)methyl)quinolin-8-ol], for which, in data set [1], the Intracellular copper levels entry was “significantly increased copper levels”. Also, the “Time until half of the initial copper(II) complex is reduced by GSH” value in data set [2] is listed as “not yet fully reached after two hours”. Besides, in data set [3], the “pKa CuLH (logβCuLH − logβCuL)” value is on record as 5.91. The figures for the IC50 in the data set on KB-v1 cells (absence of Tariquidar) and in the data set on KB-v1 cells (setting [4]) were 0.27 ± 0.12 µM and 2.27 µM, respectively.

For `Oc1c(CN2CCCCC2)ccc2cccnc12` [Compound Q-3, 7-(piperidin-1-ylmethyl)quinolin-8-ol], the “Increase in copper uptake” value in data set [1] (1 µM ligand with 5 µM CuCl2, 4 h) is reported as 10 fold. Also, the IC50 with KB-v1 cells (absence of Tariquidar) is 1.56 ± 0.57 µM; with KB-v1 cells (setting [4]) it was 7.47 µM.
